This note sets out measurements from patent US20230348462A1, “IMIDAZO[4,5-C]QUINOLINE COMPOUNDS AND THEIR USE AS ATM KINASE INHIBITORS” (Deutsches Krebsforschungszentrum, priority 2020, published 2023).

The test system of data set [1] is Panc-1 human pancreatic ductal carcinoma cells. The experiment in a line: Panc1 cell assay (XTT cell viability with Etoposide). In kind it is cell-based. The note with it: 4 h pre-treatment, then 300 nM Etoposide, 46 h. The source says:
(§1) A selection of compounds was screened in a cellular assay system in two different cancer cell lines. Therefore, the cells were challenged with a generally non-cytotoxic concentration of Etoposid to induce DNA double strand breaks and the activation of the ATM pathway. The cells were further treated with different concentrations of the final compounds and viability of the cells was quantified using a standard XTT cell viability protocol. The principle of this assay lies in the fact that only alive and thus metabolically active cells are able to catalyze the reduction of XTT ((2,3-bis-(2-methoxy-4-nitro-5-sulfophenyl)-2H-tetrazolium-5-carboxanilide) by NADH from mitochondria, into formazan. The formazan product can be then detected using an absorbance-based microplate reader. The absorbance intensity measured in each well correlates to cell viability.
(§2) In brief, kras^G12D; mycOE; p53^−/− murine pancreatic cancer cells (KMP53) and Panc-1 human pancreatic ductal carcinoma cells were seeded in 96-well plates and left to attach overnight. The following day, cells were treated with serial dilutions of compound or DMSO in triplicates. The cells were first pre-treated for 4 hours with inhibitor and then 300 nM of Etoposide was added to each well. Cells were then grown under normal conditions (37° C., 95% air, 5% CO2) for 46 h. Following the incubation period, XTT solution was added to the cells containing 1 mg/ml XTT and 25 μM phenazine methosulfate (PMS) diluted in full culture medium. Cells were incubated in normal conditions for two more hours. For the determination of cell viability, absorbance at 450 nm was measured for each well. Absorbance values were then normalized to DMSO control and expressed as percentages of viability. Using software GraphPad Prism, the values were fitted in a nonlinear response curve and the IC50 values were calculated.
For orientation: Tetrazolium dyes change colour on reduction, which living cells bring about.

Data set [2] addresses human ATM (Homo sapiens (Human), UniProt Q13315). Briefly: Enzymatic ATM assay (RBC FRET enzyme assay). As to conditions: substrate p53, 5-point dilution starting at 10 μM. It counts as biochemical. How it is done: The inhibitory activity on the isolated ATM kinase was determined by a commercial supplier (Reaction Biology Corp., PA, US) using an activity based FRET assay. Compounds were therefore first pre-incubated with human ATM before substrate (p53) and ATP were added to initiate the phosphorylation reaction. After a given time, the kinase reaction was stopped and the amount of phosphorylated substrate was quantified using standard FRET detection methods. […] Detailed assay conditions and parameters can be requested from the commercial supplier.

For data set [3], the system named is kras^G12D; mycOE; p53^−/− murine pancreatic cancer cells (KMP53). The experiment in a line: KMP53 cell assay (XTT cell viability with Etoposide). It counts as cell-based. As to conditions: Mus musculus, 4 h pre-treatment, then 300 nM Etoposide, 46 h.
Source text: as §1, §2

Data set [4] can be described thus: Solubility in DMSO. It counts as physicochemical. As to conditions: organic solvent or mixture, free base. As to the method: In a screw-top reaction vial, 41 mg (25) (0.1 mmol) and 1 mg tBu3P Pd G3 (1.5 mol %) were suspended in 2.4 ml degassed dioxane under argon atmosphere. Subsequently were added 40 mg (27) (0.14 mmol) as solution in dioxane and 0.6 ml of an aqueous 0.5M K3PO4 solution (0.3 mmol) via syringe. The reaction vial was sealed and heated to 50° C. heating block temperature for about 2 hours. TLC indicated complete conversion at that point and the reaction was quenched by dilution with EtOAc and brine. The phases were separated and the aqueous phase was further extracted with EtOAc (3×15 ml) and subsequently with DCM (4×15 ml). The combined extracts were washed with brine, dried and evaporated. The residue was purified via flash chromatography (DCM/MeOH+2N NH3 2-10%) to obtain 36 mg (74%) of the title substance as white solid. […] Therefore, it was converted to the HCl salt by dissolution in DCM/MeOH, acidification with HCl in EtOH and subsequent concentration of the solution. […]

pIC50: −log10 of the molar value.

Chain of human ATM (Q13315 whole entry): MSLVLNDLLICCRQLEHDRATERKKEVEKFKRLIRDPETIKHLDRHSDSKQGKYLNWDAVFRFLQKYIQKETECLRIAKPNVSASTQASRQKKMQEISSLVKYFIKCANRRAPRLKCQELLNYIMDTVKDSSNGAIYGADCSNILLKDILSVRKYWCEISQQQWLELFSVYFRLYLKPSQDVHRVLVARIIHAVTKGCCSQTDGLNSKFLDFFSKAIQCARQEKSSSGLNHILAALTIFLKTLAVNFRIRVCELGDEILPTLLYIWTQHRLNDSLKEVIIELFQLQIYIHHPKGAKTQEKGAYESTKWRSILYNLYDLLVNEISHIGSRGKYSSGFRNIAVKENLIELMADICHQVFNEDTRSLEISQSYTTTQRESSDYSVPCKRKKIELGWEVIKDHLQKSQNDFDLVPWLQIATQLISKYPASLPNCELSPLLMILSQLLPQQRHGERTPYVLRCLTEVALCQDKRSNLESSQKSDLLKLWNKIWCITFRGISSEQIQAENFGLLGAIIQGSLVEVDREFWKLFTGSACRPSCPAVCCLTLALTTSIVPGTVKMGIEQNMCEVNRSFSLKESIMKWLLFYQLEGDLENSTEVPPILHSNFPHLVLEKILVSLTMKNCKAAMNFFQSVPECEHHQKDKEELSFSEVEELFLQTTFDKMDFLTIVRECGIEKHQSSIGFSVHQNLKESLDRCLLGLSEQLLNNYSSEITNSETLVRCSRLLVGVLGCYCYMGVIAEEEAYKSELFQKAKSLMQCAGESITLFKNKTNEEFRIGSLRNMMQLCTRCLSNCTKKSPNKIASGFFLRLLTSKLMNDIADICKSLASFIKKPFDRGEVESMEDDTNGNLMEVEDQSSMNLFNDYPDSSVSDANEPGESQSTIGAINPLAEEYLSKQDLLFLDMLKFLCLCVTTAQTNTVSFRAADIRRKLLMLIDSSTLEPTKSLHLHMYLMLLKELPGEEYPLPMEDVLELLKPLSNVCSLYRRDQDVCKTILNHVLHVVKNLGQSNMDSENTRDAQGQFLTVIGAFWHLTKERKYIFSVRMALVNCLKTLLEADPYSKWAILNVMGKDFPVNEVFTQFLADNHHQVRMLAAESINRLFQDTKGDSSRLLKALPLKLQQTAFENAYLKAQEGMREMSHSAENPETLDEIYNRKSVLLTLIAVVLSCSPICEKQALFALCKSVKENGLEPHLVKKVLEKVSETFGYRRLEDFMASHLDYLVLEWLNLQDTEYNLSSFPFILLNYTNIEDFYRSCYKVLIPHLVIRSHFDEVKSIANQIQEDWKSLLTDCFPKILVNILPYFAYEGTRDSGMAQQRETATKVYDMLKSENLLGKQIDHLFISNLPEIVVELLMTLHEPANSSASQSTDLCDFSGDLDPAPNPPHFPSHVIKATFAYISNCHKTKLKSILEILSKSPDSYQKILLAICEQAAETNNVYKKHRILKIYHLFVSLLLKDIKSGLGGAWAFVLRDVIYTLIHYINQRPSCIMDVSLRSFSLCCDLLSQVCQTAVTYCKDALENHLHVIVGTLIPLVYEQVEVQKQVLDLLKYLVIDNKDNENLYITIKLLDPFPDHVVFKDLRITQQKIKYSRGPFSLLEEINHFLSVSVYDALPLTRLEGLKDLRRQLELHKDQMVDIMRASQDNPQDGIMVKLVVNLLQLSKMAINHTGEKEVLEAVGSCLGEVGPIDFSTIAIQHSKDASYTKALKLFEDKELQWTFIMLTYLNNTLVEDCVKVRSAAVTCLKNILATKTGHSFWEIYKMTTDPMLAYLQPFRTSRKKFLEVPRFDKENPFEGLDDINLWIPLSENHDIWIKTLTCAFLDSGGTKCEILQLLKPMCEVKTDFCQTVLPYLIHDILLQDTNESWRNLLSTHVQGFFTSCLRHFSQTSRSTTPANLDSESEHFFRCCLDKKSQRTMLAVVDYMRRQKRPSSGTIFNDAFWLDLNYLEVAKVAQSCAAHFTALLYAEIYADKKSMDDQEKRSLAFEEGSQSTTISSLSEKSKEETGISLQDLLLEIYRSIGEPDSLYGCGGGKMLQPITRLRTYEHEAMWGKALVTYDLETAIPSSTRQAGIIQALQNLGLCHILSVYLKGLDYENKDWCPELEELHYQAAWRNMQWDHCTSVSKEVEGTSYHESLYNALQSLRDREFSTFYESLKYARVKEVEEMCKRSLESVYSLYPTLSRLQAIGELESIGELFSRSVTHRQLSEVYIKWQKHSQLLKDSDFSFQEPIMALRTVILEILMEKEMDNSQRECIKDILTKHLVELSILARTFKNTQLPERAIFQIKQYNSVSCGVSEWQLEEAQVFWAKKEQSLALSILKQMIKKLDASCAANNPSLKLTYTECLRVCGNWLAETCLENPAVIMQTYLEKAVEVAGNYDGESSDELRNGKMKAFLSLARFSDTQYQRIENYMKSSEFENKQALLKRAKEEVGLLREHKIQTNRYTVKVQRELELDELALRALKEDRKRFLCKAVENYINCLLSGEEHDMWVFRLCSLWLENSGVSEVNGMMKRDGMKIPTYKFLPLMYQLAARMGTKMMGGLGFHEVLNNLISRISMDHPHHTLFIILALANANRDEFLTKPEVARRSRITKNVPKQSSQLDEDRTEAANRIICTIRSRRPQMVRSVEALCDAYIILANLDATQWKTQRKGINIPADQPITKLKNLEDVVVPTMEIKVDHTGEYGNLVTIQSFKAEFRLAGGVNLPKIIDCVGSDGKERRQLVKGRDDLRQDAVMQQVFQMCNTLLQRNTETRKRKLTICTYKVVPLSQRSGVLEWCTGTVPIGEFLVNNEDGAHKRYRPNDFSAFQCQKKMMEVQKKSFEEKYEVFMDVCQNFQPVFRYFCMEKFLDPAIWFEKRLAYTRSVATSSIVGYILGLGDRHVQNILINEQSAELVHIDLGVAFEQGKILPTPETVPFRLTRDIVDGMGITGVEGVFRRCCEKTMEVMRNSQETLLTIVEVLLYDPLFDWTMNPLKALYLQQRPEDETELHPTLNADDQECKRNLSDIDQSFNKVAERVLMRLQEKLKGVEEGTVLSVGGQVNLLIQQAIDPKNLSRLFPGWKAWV

As for `COCCn1c(=O)n(C)c2cnc3ccc(-c4ccc(NC(=O)NC5CCCN(C)C5)cc4)cc3c21` (stereo not drawn) [Ex. 17, 1-(4-(1-(2-Methoxyethyl)-3-methyl-2-oxo-2,3-dihydro-1H-imidazo[4,5-c]quinolin-8-yl)phenyl)-3-(1-methylpiperidin-3-yl)urea], the pIC50 (in general, the negative decadic logarithm of the IC50, by convention in mol/L) in data set [1] was 8.40; in data set [2] it was > 9.00.

For the molecule `COCCn1c(=O)n(C)c2cnc3ccc(-c4ccc(NC(=O)NC5CCN(C)C5)cc4)cc3c21` (stereo not drawn) [Ex. 19, 1-(4-(1-(2-Methoxyethyl)-3-methyl-2-oxo-2,3-dihydro-1H-imidazo[4,5-c]quinolin-8-yl)phenyl)-3-(1-methylpyrrolidin-3-yl)urea], the pIC50 in data set [3] is 5.00; in data set [1] it was 8.05; in data set [2], > 9.00.

Take `COCCn1c(=O)n(C)c2cnc3ccc(-c4ccc(NC(=O)NCCN(C)C)cc4F)cc3c21` [Ex. 27, 1-(2-(Dimethylamino)ethyl)-3-(3-fluoro-4-(1-(2-methoxyethyl)-3-methyl-2-oxo-2,3-dihydro-1H-imidazo[4,5-c]quinolin-8-yl)phenyl)urea]: the results for the pIC50 in data set [3], in data set [1] and in data set [2] were 5.32, 9.00 and > 9.00, respectively.

Take `COCCn1c(=O)n(C)c2cnc3ccc(-c4ccc(NC(=O)NCCN(C)C)c(F)c4)cc3c21` [Ex. 28, 1-(2-(Dimethylamino)ethyl)-3-(2-fluoro-4-(1-(2-methoxyethyl)-3-methyl-2-oxo-2,3-dihydro-1H-imidazo[4,5-c]quinolin-8-yl)phenyl)urea]: the pIC50 is 5.70 in data set [3], 9.00 in data set [1] and > 9.00 in data set [2].

On to `CN(C)CCCOc1ccc(-c2ccc3ncc4nc(-c5ccccc5)n(C5CCOCC5)c4c3c2)cn1` [Ex. 4, N,N-Dimethyl-3-((5-(2-phenyl-1-(tetrahydro-2H-pyran-4-yl)-1H-imidazo[4,5-c]quinolin-8-yl)pyridin-2-yl)oxy)propan-1-amine], for which the pIC50 is 5.68 in data set [3] and 8.43 in data set [2].

For the molecule `COCCn1c(=O)n(C)c2cnc3ccc(-c4ccc(OCCCN(C)C)nc4)cc3c21` [Ex. 9, 8-(6-(3-(Dimethylamino)propoxy)43uinolin-3-yl)-1-(2-methoxyethyl)-3-methyl-1,3-dihydro-2H-imidazo[4,5-c]43uinoline-2-one], the figures for the pIC50 in data set [3] and in data set [2] were 5.80 and > 9.00, respectively.

As to `CN(C)CCNC(=O)Nc1ccc(-c2ccc3ncc4c(c3c2)n(C2CCOCC2)c(=O)n4C)cn1` [Ex. 7, 1-(2-(Dimethylamino)ethyl)-3-(5-(3-methyl-2-oxo-1-(tetrahydro-2H-pyran-4-yl)-2,3-dihydro-H-imidazo[4,5-c]quinolin-8-yl)pyridin-2-yl)urea], the pIC50 in data set [3] was 5.60; in data set [2], > 9.00. Also, the solubility (in general, the concentration that dissolves in the medium under given conditions) in data set [4] was < 10 mM.
